Reference: article PMC5738391, “Three classes of ligands each bind to distinct sites on the orphan G protein-coupled receptor GPR84” (Scientific Reports, 2017)

How the values were obtained:
[1] = molecular target: T1, Arg^172Ala GPR84-Cys^352Ile Gαi2 fusion protein (Homo sapiens, UniProt Q9NQS5, R172A); assay: [35S]GTPγS binding, Arg172Ala mutant fusion protein; format: biochemical
T1 construct: Cys352Ile Gαi2 (fusion partner, same polypeptide); expressed in transfected cells; host or cells: membranes of Flp-In T-REx 293 cells, doxycycline-induced
T1 sequence (Q9NQS5 2-396 R172A): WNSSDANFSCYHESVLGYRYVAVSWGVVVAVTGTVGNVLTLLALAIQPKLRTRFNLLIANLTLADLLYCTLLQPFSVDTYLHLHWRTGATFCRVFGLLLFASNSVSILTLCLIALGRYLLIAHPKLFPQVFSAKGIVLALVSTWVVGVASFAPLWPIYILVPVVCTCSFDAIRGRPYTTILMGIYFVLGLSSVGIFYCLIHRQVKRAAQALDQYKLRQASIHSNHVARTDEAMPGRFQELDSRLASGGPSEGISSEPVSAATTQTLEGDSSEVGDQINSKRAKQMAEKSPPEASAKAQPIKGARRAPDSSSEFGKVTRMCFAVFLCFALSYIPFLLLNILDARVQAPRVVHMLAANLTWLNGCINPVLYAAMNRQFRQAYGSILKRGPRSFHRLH
Text: To try to identify how a MCFA might interact with GPR84 we turned to homology modelling studies. Although GPR84 is not closely related to the other GPCRs that respond to either short chain (FFA2, FFA3) or long chain (FFA1, FFA4) fatty acids[8],[9], in each of the other cases the carboxylate of the fatty acid is co-ordinated by one or more arginine residues located at or near the extracellular surface[12]–[14]. […] As we have highlighted recently[9] GPR84 and the β2-adrenoceptor are only distantly related whilst, of the currently available atomic level GPCR structures, the orexin OX1 receptor[34] has highest overall sequence identity (31%) with GPR84. We, therefore, generated and employed a new homology model of GPR84 based on the transmembrane domain architecture of the OX1 receptor (Fig. 6). However, because ECL2 of GPR84 is very similar in sequence to that of rhodopsin (Fig. 6a), with 43% residue identity over this region, we incorporated this knowledge into the modelling process. In the resulting hybrid model (Fig. 6a) Arg^172 within ECL2 is pointing into the potential binding cavity within the helical bundle. This was not the case when Nikaido et al.,[3] employed the β2-adrenoceptor-based model, probably because the ECL2 sequences of the β2-adrenoceptor and GPR84 have no relatedness. […] To assess this we mutated Arg^172 to Ala within the setting of the GPR84-Cys^352Ile Gαi2 fusion protein. […] Equivalent results were obtained in studies in which the Arg^172Ala mutation was introduced into the FLAG-hGPR84-eYFP construct (Fig. 7b).
FLAG-humanGPR84-Gαi2 fusion proteins were constructed by replacing eYFP within the FLAG-humanGPR84-eYFP-pcDNA5/FRT/TO construct with sequence corresponding to Gαi2 or Cys^352Ile Gαi2 using NotI and XhoI restriction enzymes. Site-directed mutagenesis to generate point mutants of GPR84 was performed according to the QuikChange method (Stratagene, Cheshire, UK). The identity of all constructs was verified by nucleotide sequencing.
Initially, 5 μg of generated membrane protein was pre-incubated for 15 min at 25 °C in assay buffer (20 mM HEPES, 5 mM MgCl2; 160 mM NaCl; 1 μM GDP; 0.05% fatty acid-free bovine serum albumin; pH 7.5) containing the indicated ligand concentrations. […] The reaction was then initiated with addition of [^35S]GTPγS (50 nCi per tube), and the reaction was terminated after 45 minutes incubation at 30 °C by rapid filtration through GF/C glass filters using a 24-well Brandel cell harvester (Alpha Biotech, Glasgow, UK). Unbound radioligand was removed from filters by three washes with ice-cold phosphate buffered saline (pH 7.4) and filters were dried for 2–3 h at room temperature. Dried filters were added to 3 mL of Ultima Gold^TM XR (PerkinElmer Life Sciences, Beaconsfield, UK) and [^35S]GTPγS binding was determined by liquid scintillation spectrometry.

[2] = molecular target: T2, Arg^172Lys GPR84-Cys^352Ile Gαi2 fusion protein (Homo sapiens, UniProt Q9NQS5, R172K); assay: [35S]GTPγS binding, Arg172Lys mutant fusion protein; format: biochemical
T2 construct: Cys352Ile Gαi2 (fusion partner, same polypeptide); expressed in transfected cells; host or cells: membranes of Flp-In T-REx 293 cells, doxycycline-induced
T2 sequence (Q9NQS5 2-396 R172K): as the sequence (Q9NQS5 2-396 R172A) above, with A171K counted along it

[3] = molecular target: GPR84-Cys^352Ile Gαi2 fusion protein (Homo sapiens, UniProt Q9NQS5); assay: [3H]G9543 radioligand binding (saturation and displacement), GPR84-Cys352Ile Gαi2 fusion protein; design: Cys352Ile Gαi2 (fusion partner, same polypeptide); expressed in transfected cells; host or cells: membranes of Flp-In T-REx 293 cells, doxycycline-induced; settings: displacement assay
Sequence of GPR84-Cys^352Ile Gαi2 fusion protein (Q9NQS5 2-396): as the sequence (Q9NQS5 2-396 R172A) above, with A171R counted along it
Description: [^3H]G9543 is an analog of compounds 104, 107 and 161 with the same characteristic 2-(substituted-alkoxy)-9-substituted-6,7-dihydro-pyrimido[6,1-a]isoquinolin-4-one chemotype. […] Binding was initiated by the addition of membranes (5 µg of protein per tube). All assays were performed at 25 °C for 1 h before termination by the addition of ice-cold phosphate-buffered saline and vacuum filtration through GF/C glass filters using a 24-well Brandel cell harvester (Alpha Biotech, Glasgow, UK). Each reaction tube was washed three times with ice-cold PBS. The filters were allowed to dry for 2–3 h and then placed in 3 ml of Ultima Gold^TM XR. Radioactivity was quantified by liquid scintillation spectrometry. Specific binding was defined as the difference between binding detected in the presence and absence of 1 µM compound 104.
All data are presented as means ± SEM of at least three independent experiments. Data analysis and curve fitting was carried out using the GraphPad Prism software package version 5.0b (GraphPad, San Diego). For functional assays the concentration-response data were plotted on a log axis, with the untreated vehicle control plotted at 1 log unit lower than the lowest ligand concentration, and fitted to a three parameter sigmoidal curve with the Hill slope constrained to equal 1. In case of inhibition experiments with antagonists an equivalent analysis was followed to fit an inverse sigmoidal curve. To perform the statistical analysis of curve parameters, data from multiple experiments were fitted independently and resulting curve fit values were analysed with indicated tests. For radioligand binding data, saturation binding curves were generated by fitting the specific binding, which was obtained by subtracting non-specific from total binding, to a one site specific binding model that allows calculation of Kd values for the radioligand at wild type and mutant receptors. To determine affinity of unlabelled ligands, data obtained in displacement assays were fit to an inverse three parameter sigmoidal curve constrained by radioligand affinity and concentration to allow for Ki calculation.

[4] = molecular target: T3, FLAG-Arg^174Ala hGPR84-eYFP (Homo sapiens, UniProt Q9NQS5, R174A); assay: [35S]GTPγS binding, Arg174Ala mutant receptor; format: biochemical
T3 construct: expressed in transfected cells; host or cells: membranes of Flp-In T-REx 293 cells, doxycycline-induced
T3 sequence (Q9NQS5 whole entry R174A): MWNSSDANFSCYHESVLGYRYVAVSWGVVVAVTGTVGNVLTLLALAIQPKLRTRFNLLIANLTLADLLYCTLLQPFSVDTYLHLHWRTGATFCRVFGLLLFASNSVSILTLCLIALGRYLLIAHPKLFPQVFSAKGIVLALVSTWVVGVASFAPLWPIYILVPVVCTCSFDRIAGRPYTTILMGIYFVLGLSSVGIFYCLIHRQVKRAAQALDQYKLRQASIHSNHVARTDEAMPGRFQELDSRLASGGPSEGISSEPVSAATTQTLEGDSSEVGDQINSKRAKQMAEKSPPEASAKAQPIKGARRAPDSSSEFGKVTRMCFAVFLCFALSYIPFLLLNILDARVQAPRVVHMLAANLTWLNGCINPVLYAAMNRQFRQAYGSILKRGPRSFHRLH

Q: Which “agonist response at Arg172Ala mutant” value [1] does the source give for c1ccc2c(Cc3c[nH]c4ccccc34)c[nH]c2c1 [DIM, 3,-3′-diindolylmethane] here?
A: The value was “retained full activity”.

Q: And the “agonist response at Arg172Lys mutant” value [2]?
A: Its value is “without affecting response”.

Q: And the “ability to compete with [3H]G9543 binding” value [3]?
A: The value was “neither C10 nor DIM was able to compete effectively”.

Q: What about the “effect of Arg174Ala mutation on agonist function or potency” value [4] of the same molecule?
A: Its value is “did not affect function or potency”.

Q: What does the source list for CCCCCCCCCC(=O)O [C10, decanoic acid]?
A: agonist response at Arg172Ala mutant [1]: no response; agonist response at Arg172Lys mutant [2]: eliminated response; ability to compete with [3H]G9543 binding [3]: neither C10 nor DIM was able to compete effectively; effect of Arg174Ala mutation on agonist function or potency [4]: did not affect function or potency
